Among the data in US20150239889A1, “PYRAZOLOPYRIMIDINE COMPOUND” (MITSUBISHI TANABE PHARMA CORPORATION, priority 2012, published 2015) are fold induction and IC50 values, retold here.

The subject of test [1] is Hep3B cells. As to the kind of experiment: EPO production assay (ELISA of culture supernatant). The class given is cell-based. The note with it: Homo sapiens, 3 μmol/L test compound, 48 hours, relative to control (0.1% DMSO), read-out: EPO production stimulation rate with 3 μmol/L test compound. An outline of the steps:
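Hep3B cells (40000/well) switched to MEM with 0.5% FBS and treated with compound (0.1% DMSO) for 48 h at 37 °C. Supernatant EPO measured by ELISA; value is fold stimulation at 3 μmol/L compound over unstimulated control.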

Test [2] has as its target T1, human HIF-PHD2 (Homo sapiens, UniProt Q9GZT9).
T1 construct: purchased CrystalGenomics Ltd
As to the kind of experiment: HIF-PHD inhibition assay (fluorescence polarization), human HIF-PHD2. The class given is biochemical. The note with it: 2-oxoglutaric acid 3.33 μmol/L. An outline of the steps: (§1)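 Fluorescence polarization was read before and after adding enzyme, and the difference (mP value) taken as enzyme activity. The tracer carried a FAM (5′-fluoresceinamide) tag linked via aminocaproic acid.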
Background: Fluorescence polarisation rises when a labelled molecule tumbles more slowly, as on binding a larger partner.

The target of test [3] is T2, human HIF-PHD3 (Homo sapiens, UniProt Q9H6Z9).
T2 construct: purchased CrystalGenomics Ltd
T2 sequence (Q9H6Z9 whole entry): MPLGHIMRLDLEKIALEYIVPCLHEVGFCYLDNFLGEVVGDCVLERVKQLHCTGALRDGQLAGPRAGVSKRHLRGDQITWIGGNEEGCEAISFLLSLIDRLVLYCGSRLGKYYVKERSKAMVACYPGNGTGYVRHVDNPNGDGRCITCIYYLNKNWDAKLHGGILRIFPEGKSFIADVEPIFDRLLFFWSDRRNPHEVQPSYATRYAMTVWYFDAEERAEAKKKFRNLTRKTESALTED
The test is described as follows: HIF-PHD inhibition assay (fluorescence polarization), human HIF-PHD3. The format is biochemical. The note with it: 2-oxoglutaric acid 166 μmol/L. An outline of the steps:
as §1

T1 sequence (Q9GZT9 2-426 limits assumed): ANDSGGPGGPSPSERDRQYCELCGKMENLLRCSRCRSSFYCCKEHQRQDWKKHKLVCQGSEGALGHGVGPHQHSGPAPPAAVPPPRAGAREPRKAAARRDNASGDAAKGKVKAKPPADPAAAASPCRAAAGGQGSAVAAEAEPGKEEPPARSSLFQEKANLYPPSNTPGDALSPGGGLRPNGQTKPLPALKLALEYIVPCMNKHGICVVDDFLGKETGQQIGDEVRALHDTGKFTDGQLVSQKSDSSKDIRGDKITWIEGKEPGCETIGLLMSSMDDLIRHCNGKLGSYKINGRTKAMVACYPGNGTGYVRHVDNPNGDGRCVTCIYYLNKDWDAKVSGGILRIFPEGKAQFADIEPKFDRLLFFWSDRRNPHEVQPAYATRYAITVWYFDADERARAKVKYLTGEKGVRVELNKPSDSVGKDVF

On to `O=C(O)c1cnn(-c2nc(O)c3nn(Cc4ccccc4-c4ccccc4)cc3n2)c1` [Example 241], for which the fold induction at 3 µM in test [1] came out at 1.2. For the same molecule, the half-inhibitory concentration (IC50) turned out to be 0.0087 µM in test [2] and 0.37 µM in test [3].
In the case of `O=C(O)c1cnn(-c2nc(O)c3c(cnn3CC3CCCCCCC3)n2)c1` [Example 159], the fold induction at 3 µM in test [1] stood at 4.5. For the same molecule, the IC50 in test [2] was 0.11 µM; in test [3], 0.38 µM.
In the case of `O=C(O)c1cnn(-c2nc(O)c3c(cnn3Cc3ccc(C(F)(F)F)c(Cl)c3)n2)c1` [Example 6], the fold induction at 3 µM in test [1] was 6.1. For the same molecule, the IC50 worked out at 0.041 µM in test [2] and 0.13 µM in test [3].
As for `Cc1ccc2cc(CCn3ncc4nc(-n5cc(C(=O)O)cn5)nc(O)c43)ccc2c1C` [Example 129], the fold induction at 3 µM in test [1] was 162. Also, the IC50 in test [2] worked out at 0.021 µM; in test [3], 0.16 µM.
Taken in the same sequence, the figures for `O=C(O)c1cnn(-c2nc(O)c3c(cnn3Cc3ccc(-c4ccccc4C(F)(F)F)cc3F)n2)c1` [Example 84] were 4.3, 0.013 µM and 0.2 µM.
Taken in the same sequence, the figures for `Cc1nn(CCC2CCCC2)c2c(O)nc(-n3cc(C(=O)O)cn3)nc12` [Example 476] were 2.7, 0.036 µM and 0.57 µM.
On the same counts, the results for `O=C(O)c1cnn(-c2nc(O)c3c(cnn3CCCOc3ccc4c(c3)CCCC4)n2)c1` [Example 188] are 23, 0.014 µM and 0.54 µM.
For the molecule `Cc1ccccc1-c1ccc(Cn2ncc3nc(-n4cc(C(=O)O)cn4)nc(O)c32)c(F)c1` [Example 83], the fold induction at 3 µM in test [1] was determined as 6.2. The IC50 is 0.033 µM in test [2] and 0.24 µM in test [3].
For `Cc1ccc(-c2ccc(Cn3ncc4nc(-n5cc(C(=O)O)cn5)nc(O)c43)cc2)c(C)c1` [Example 70], in test [1], the fold induction at 3 µM was found to be 24. Moreover, the IC50 in test [2] worked out at 0.011 µM; in test [3], 0.11 µM.
Taken in the same sequence, the figures for `O=C(O)c1cnn(-c2nc(O)c3c(cnn3CCCOc3ccccc3C(F)(F)F)n2)c1` [Example 173] were 7.7, 0.013 µM and 0.19 µM.
With `O=C(O)c1cnn(-c2nc(O)c3c(cnn3Cc3ccc(-c4cccc(F)c4F)cc3)n2)c1` [Example 76], the fold induction at 3 µM in test [1] is 6.9. Further, the half-inhibitory concentration (IC50) was 0.0091 µM in test [2] and 0.12 µM in test [3].
Take `O=C(O)c1cnn(-c2nc(O)c3c(cnn3Cc3ccc4ccccc4c3)n2)c1` [Example 29]: in test [1], the fold induction at 3 µM was found to be 4.2. The IC50 in test [2] was found to be 0.037 µM; in test [3] it was 0.2 µM.
Turning to `Cc1ncccc1-c1ccc(Cn2ncc3nc(-n4cc(C(=O)O)cn4)nc(O)c32)cc1F` [Example 106], in test [1], the fold induction at 3 µM came out at 5.2. In addition, the IC50 is 0.0074 µM in test [2] and 0.028 µM in test [3].
On the same counts, the results for `O=C(O)c1cnn(-c2nc(O)c3c(cnn3Cc3cccc(-c4ccc(C(F)(F)F)cc4)c3)n2)c1` [Example 41] are 9.5, 0.022 µM and 0.34 µM.
Taken in the same sequence, the figures for `Cc1cc(OCCCn2ncc3nc(-n4cc(C(=O)O)cn4)nc(O)c32)cc(C)c1Cl` [Example 182] were 9.1, 0.022 µM and 0.056 µM.
On the same counts, the results for `O=C(O)c1cnn(-c2nc(O)c3c(cnn3CCCCOc3ccc(F)cc3)n2)c1` [Example 215] are 6.7, 0.014 µM and 0.29 µM.
Consider `O=C(O)c1cnn(-c2nc(O)c3c(cnn3Cc3ccc(-c4cc(F)ccc4F)cc3)n2)c1` [Example 77], for which the fold induction at 3 µM in test [1] stood at 9.8. Also, the concentration for half-maximal inhibition (IC50) turned out to be 0.0087 µM in test [2] and 0.13 µM in test [3].
On to `O=C(O)c1cnn(-c2nc(O)c3c(cnn3CC3CCCCC3)n2)c1` [Example 136], for which the fold induction at 3 µM in test [1] turned out to be 8.5. The results for the IC50 in test [2] and in test [3] were 0.031 µM and 0.32 µM, respectively.
Taken in the same sequence, the figures for `Cc1nn([C@@H](C)c2ccc(C(F)(F)F)cc2)c2c(O)nc(-n3cc(C(=O)O)cn3)nc12` [Example 446] were 6.3, 0.018 µM and 0.48 µM.
On the same counts, the results for `O=C(O)c1cnn(-c2nc(O)c3c(cnn3CCC3CCOCC3)n2)c1` [Example 153] are 1.5, 0.059 µM and 0.9 µM.
Taken in the same sequence, the figures for `O=C(O)c1cnn(-c2nc(O)c3c(cnn3C[C@H]3CC[C@H](c4ccc(Cl)cc4)CC3)n2)c1` [Example 156] were 24, 0.02 µM and 0.16 µM.
As for `CC(C)(C)c1cccc(OCCCn2ncc3nc(-n4cc(C(=O)O)cn4)nc(O)c32)c1` [Example 179], in test [1], the fold induction at 3 µM came out at 14. The concentration for half-maximal inhibition (IC50) amounted to 0.045 µM in test [2] and 0.16 µM in test [3].
On the same counts, the results for `O=C(O)c1cnn(-c2nc(O)c3c(cnn3CCCCCc3ccccc3)n2)c1` [Example 166] are 8.1, 0.031 µM and 0.13 µM.
Taken in the same sequence, the figures for `O=C(O)c1cnn(-c2nc(O)c3c(cnn3CCCN(c3ccccc3)c3ccccc3)n2)c1` [Example 168] were 66, 0.023 µM and 0.2 µM.
On the same counts, the results for `COc1ccc(Cn2ncc3nc(-n4cc(C(=O)O)cn4)nc(O)c32)cc1` [Example 3] are 2.1, 0.031 µM and 0.16 µM.
For `O=C(O)c1cnn(-c2nc(O)c3c(cnn3CCC3CCCCC3)n2)c1` [Example 160], the fold induction at 3 µM in test [1] was 3.6. The IC50 stood at 0.071 µM in test [2] and 0.38 µM in test [3].
Taken in the same sequence, the figures for `O=C(O)c1cnn(-c2nc(O)c3c(cnn3CCOc3ccccc3)n2)c1` [Example 200] were 1.4, 0.012 µM and 1.8 µM.
With `O=C(O)c1cnn(-c2nc(O)c3c(cnn3CCc3cccc(Cl)c3)n2)c1` [Example 114], the fold induction at 3 µM in test [1] was found to be 5.2. Further, the figures for the half-inhibitory concentration (IC50) in test [2] and in test [3] were 0.02 µM and 0.3 µM, respectively.
In the case of `O=C(O)c1cnn(-c2nc(O)c3c(cnn3CC3(COc4ccc5c(c4)CCCC5)CC3)n2)c1` [Example 199], the fold induction at 3 µM in test [1] came out at 5. The IC50 in test [2] was 0.13 µM; in test [3] it was 1.1 µM.
Taken in the same sequence, the figures for `O=C(O)c1cnn(-c2nc(O)c3c(cnn3CCCCc3ccc(Cl)cc3)n2)c1` [Example 165] were 15, 0.012 µM and 0.21 µM.

The term IC50 denotes the midpoint of a concentration-inhibition curve.
